From article PMC10315472 (Frontiers in Microbiology, 2023)
Read-outs that look alike come from different tables or passages of the source. Positions of bridges follow the written chain, without caps; N, C: chain ends. Residues, ends and D or L forms follow the SMILES beside them.

How the values were obtained:
[1] = target: T1, WT RBD (Severe acute respiratory syndrome coronavirus 2, UniProt P0DTC2); assay: biochemical; assay type: binding, SARS-CoV-2
[2] = target: T1, WT RBD; assay: biochemical; assay type: binding, SARS-CoV-2; remark: listed apart in the source
[3] = covalently immobilized onto CM5 via amine groups

| Structure (SMILES) | Kd [1] | Kd [2] | koff [2] | kon [2] | stability on CM5 chip [3] |
| --- | --- | --- | --- | --- | --- |
| CC[C@H](C)[C@@H]1NC(=O)[C@H](CCCCN)NC(=O)CNC(=O)[C@H](CCCNC(=N)N)NC(=O)[C@@H]2CSSC[C@H](N)C(=O)N3CCC[C@H]3C(=O)N[C@@H](Cc3c[nH]c4ccccc34)C(=O)N[C@@H](CC(N)=O)C(=O)N[C@@H](C)C(=O)N[C@@H](Cc3ccc(O)cc3)C(=O)N[C@@H](CCC(=O)O)C(=O)N[C@H]3CSSC[C@H](NC(=O)[C@H]([C@@H](C)O)NC(=O)[C@H](CCC(N)=O)NC(=O)[C@H](CCCNC(=N)N)NC1=O)C(=O)N[C@@H](Cc1c[nH]cn1)C(=O)N[C@H](C(=O)N[C@@H](Cc1ccc(O)cc1)C(=O)O)CSSC[C@H](NC(=O)[C@H](Cc1c[nH]cn1)NC(=O)[C@H](CCCNC(=N)N)NC(=O)[C@H](CC(=O)O)NC3=O)C(=O)N[C@@H](C(C)C)C(=O)N[C@@H](CO)C(=O)N[C@@H](CCCCN)C(=O)NCC(=O)N[C@@H](Cc1ccc(O)cc1)C(=O)N[C@@H]([C@@H](C)O)C(=O)NCC(=O)NCC(=O)N[C@@H](CC(N)=O)C(=O)N2 [(ΔGFG)AMSIN] (H-CPWNAYECDRHCVSKGYTGGNCRGKIRQTCHCY-OH; disulfide 1-22, 8-30, 12-32) | 119 nM | – | – | – | – |
| CC[C@H](C)[C@@H]1NC(=O)[C@H](CCCCN)NC(=O)CNC(=O)[C@H](CCCNC(=N)N)NC(=O)[C@@H]2CSSC[C@H](NC(=O)CNC(=O)[C@H](Cc3ccccc3)NC(=O)CN)C(=O)N3CCC[C@H]3C(=O)N[C@@H](Cc3c[nH]c4ccccc34)C(=O)N[C@@H](CC(N)=O)C(=O)N[C@@H](C)C(=O)N[C@@H](Cc3ccc(O)cc3)C(=O)N[C@@H](CCC(=O)O)C(=O)N[C@H]3CSSC[C@H](NC(=O)[C@H]([C@@H](C)O)NC(=O)[C@H](CCC(N)=O)NC(=O)[C@H](CCCNC(=N)N)NC1=O)C(=O)N[C@@H](Cc1c[nH]cn1)C(=O)N[C@H](C(=O)N[C@@H](Cc1ccc(O)cc1)C(=O)O)CSSC[C@H](NC(=O)[C@H](Cc1c[nH]cn1)NC(=O)[C@H](CCCNC(=N)N)NC(=O)[C@H](CC(=O)O)NC3=O)C(=O)N[C@@H](C(C)C)C(=O)N[C@@H](CO)C(=O)N[C@@H](CCCCN)C(=O)NCC(=O)N[C@@H](Cc1ccc(O)cc1)C(=O)N[C@@H]([C@@H](C)O)C(=O)NCC(=O)NCC(=O)N[C@@H](CC(N)=O)C(=O)N2 [AMSIN] (H-GFGCPWNAYECDRHCVSKGYTGGNCRGKIRQTCHCY-OH; disulfide 4-25, 11-33, 15-35) | – | 193 nM | 0.00219 s⁻¹ | 11300 M⁻¹ s⁻¹ | rather stable |
| CC[C@H](C)[C@@H]1NC(=O)CNC(=O)[C@H](CCCCN)NC(=O)[C@@H]2CSSC[C@@H](C(=O)N[C@@H](Cc3ccc(O)cc3)C(=O)O)NC(=O)[C@H](CCCCN)NC(=O)[C@@H]3CSSC[C@H](NC(=O)[C@H](CCCNC(=N)N)NC(=O)[C@H](CO)NC(=O)[C@H](CC(=O)O)NC(=O)[C@H](CC(N)=O)NC(=O)CNC(=O)CNC(=O)[C@H](Cc4ccccc4)NC(=O)[C@H]([C@@H](C)CC)NC(=O)[C@H]([C@@H](C)O)NC(=O)[C@@H](NC(=O)CNC(=O)[C@H](Cc4c[nH]c5ccccc45)NC(=O)CN)CSSC[C@H](NC(=O)[C@H](Cc4ccc(O)cc4)NC(=O)CNC(=O)CNC(=O)[C@H](CCCNC(=N)N)NC(=O)[C@H](Cc4ccc(O)cc4)NC(=O)CNC(=O)[C@H](CCCNC(=N)N)NC1=O)C(=O)N[C@@H](CCCCN)C(=O)N[C@@H](CC(C)C)C(=O)NCC(=O)NCC(=O)N[C@@H]([C@@H](C)CC)C(=O)N3)C(=O)N[C@@H](Cc1c[nH]cn1)C(=O)N[C@@H](CCCNC(=N)N)C(=O)N[C@@H](Cc1c[nH]cn1)C(=O)N2 [Emorisin] (H-GWGCTIFGGNDSRCHRHCKGIRGYRGGYCKLGGICKCY-OH; disulfide 4-29, 14-35, 18-37) | – | 7.6 nM | 0.045 s⁻¹ | 5.92e+06 M⁻¹ s⁻¹ | – |
